Measured values from US9410217B2, “Method of reducing a fermentation and/or enzyme inhibitor in a saccharide-containing composition” (priority 2014, dated 2016).
Several values for one entry are separate records, joined by “and”; a condition that tells them apart may be missing. Identical values can stand only once. Like-named read-outs stand apart in the source and are kept apart here.

Key:
[1] = Reduction of HMF in sugar liquor after contact with amine
Protocol: Sugar liquor was prepared by a two-step hydrolysis process with subsequent refining. A slurry of particulate biomass was first subjected to a first hydrolysis step at about 190-240° C. and 50-80 bar for 1-120 min. The resulting solids were subjected to supercritical or near-critical water conditions at about 374-450° C. and 221-300 bar for less than 1 minute. The resulting liquid portion was concentrated to about 250-300 g/L of monomer sugar equivalent and acid hydrolyzed at about 100-200° C. for 1 hour. The acid-hydrolyzed liquor was filtered and neutralized with sodium hydroxide to a pH of about 5-7. After that, the liquid portion was overlimed with calcium oxide at pH of about 8-10 and filtered. The final pH adjustment to about 5-7 was done with 70% sulfuric acid. Overliming was performed to produce the sugar liquor used in these examples, and an aldehyde compound, HMF, subsequently re-added to simulate a sugar liquor that is not overlimed.
The pH of 100 g of the sugar liquor was adjusted to 6 with sodium hydroxide prior to addition of the amine. 1 g of m-phenylenediamine (MPD) was added to the sugar liquor, and the mixture was shaken for 1 hour.
Using the same procedure to prepare the sugar liquor as described in Example 1, the pH of 100 g of the sugar liquor was adjusted to 6 with NaOH prior to addition of the amine. For each sample, 1 g of amine was added, and the mixture was shaken for 1 hour.
Using the same procedure to prepare the sugar liquor as described in Example 1, the pH of 100 g of the sugar liquor was adjusted to 6 with sodium hydroxide prior to addition of the amine. For each sample, 1 g of amine was added, and the mixture was shaken for 1 hour.

Saccharomyces cerevisiae = assay: Fermentation test of treated sugar liquor with yeast; format: cell-based
Protocol: The saccharide-containing compositions of Examples 1 and 3 were subjected to a fermentation test with the yeast Saccharomyces cerevisiae. In the fermentation test, 1% yeast extract and 2% peptone were added to the saccharide-containing compositions of Examples 1 and 3 as growth nutrients, and these compositions were then inoculated with 5% inoculum of Saccharomyces cerevisiae (optical density 10). If more than 80% of sugars were consumed in 72 hours of fermentation, the test is considered a “pass” (i.e., a satisfactory test result).
The saccharide-containing compositions were subjected to a fermentation test with the yeast Saccharomyces cerevisiae. In the fermentation test, 1% yeast extract and 2% peptone were added to the saccharide-containing compositions as growth nutrients, and these compositions were then inoculated with 5% inoculum of Saccharomyces cerevisiae (optical density 10). If more than 80% of sugars were consumed in 72 hours of fermentation, the test is considered a “pass” (i.e., a satisfactory test result).

[2] = Reduction of syringaldehyde in xylose monomer stream (GC/MS); settings: for Syringaldehyde: 100 g xylose monomer stream after treatment, shaken 30-60 min, untreated control 321.5 ppm; for syringaldehyde reduction (in words): xylose monomer stream, from about 321.5 ppm, pass is less than about 50 ppm
Protocol: The acid-hydrolyzed liquor was filtered and then neutralized with sodium hydroxide to a pH of about 5-7 to produce the xylose monomer stream. Five samples labeled Samples 1-5 were evaluated as described in Table 2. Sample 1 was an untreated control. […] The flask was shaken for 30-60 min, and Samples 2 and 5 were then analyzed for syringaldehyde by GC/MS. […] The flask was shaken for about 30-60 min, adjusted to pH of about 5 with H2SO4, and then filtered. The resulting liquid portion was analyzed by GC/MS. For Sample 4, the pH of 100 g of the xylose monomer stream was adjusted to 5-6 with NH4OH, the flask was shaken for 30-60 min, and then the samples were analyzed by GC/MS.

Pichia stipitis = assay: Fermentation testing of treated xylose monomer stream; format: cell-based
Protocol: For fermentation testing, the pH was adjusted back to 5 with H2SO4 and fermentation was performed with the xylose fermenting organism Pichia stipitis.

[3] = sugar liquor after contact, 1 g amine per 100 g liquor, pH 6, shaken 1 hour

| SMILES | HMF [1, 3] [g/L] | % Glucose Consumed (Saccharomyces cerevisiae; 24 hr) [%] | Ethanol (Saccharomyces cerevisiae; 24 hr) [g/L] | % Glucose Consumed (Saccharomyces cerevisiae; 48 hr) [%] | Ethanol (Saccharomyces cerevisiae; 48 hr) [g/L] | % Glucose Consumed (Saccharomyces cerevisiae; 72 hr) [%] | Ethanol (Saccharomyces cerevisiae; 72 hr) [g/L] | HMF (Saccharomyces cerevisiae; 72 hr) [g/L] | HMF (Saccharomyces cerevisiae; 24 hr) [g/L] | HMF (Saccharomyces cerevisiae; 48 hr) [g/L] | other results |
| --- | --- | --- | --- | --- | --- | --- | --- | --- | --- | --- | --- |
| Cc1ccc(N)cc1N [DAT, 2,4-diaminotoluene] | 0.74 | 51.55 | 43.15 | 96.03 | 92.29 | 95.88 | 86.38 | – | – | – | – |
| Nc1cccc(N)c1 [MPD, m-phenylenediamine] | 1.50 | 95.64 | 77.25 | – | – | – | – | – | – | – | Syringaldehyde [2]: Not detected; syringaldehyde reduction (in words) [2]: below detectable levels; Ethanol (Pichia stipitis; fermentation time 48 hr): 1.80 g/L; Ethanol (Pichia stipitis; fermentation time 72 hr): 4.86 g/L; Ethanol (Pichia stipitis; fermentation time 96 hr): 8.22 g/L; fermentability of treated sample (in words) (Pichia stipitis; xylose monomer stream, pH adjusted back to 5): fermentable |
| N.O [NH4OH] | – | – | – | – | – | – | – | – | – | – | Syringaldehyde [2]: 147.7 ppm; syringaldehyde reduction (in words) [2]: did not reduce the concentration of syringaldehyde to below a detectable level |
| [BH4-].[Na+] [NaBH4] | – | – | – | – | – | – | – | – | – | – | Syringaldehyde [2]: 218.4 ppm; syringaldehyde reduction (in words) [2]: did not reduce the concentration of syringaldehyde to below a detectable level |
| Nc1ccccc1N [OPD, o-phenylenediamine] | – | 24.24 | 16.80 | 96.61 | 86.88 | 96.53 | 90.28 | 0.36 | – | – | – |
| Nc1ccc(N)cc1 [PPD, p-phenylenediamine] | 3.40 | 24.18 | 13.74 | 97.75 | 84.75 | 97.40 | 84.79 | – | 0.30 | 0.37 | – |
| Nc1ccccc1 [aniline] | 7.43 | 5.19 | 1.55 | 5.19 | 1.51 | – | – | – | 5.2 | 4.89 | – |
| NCCO [ethanolamine] | 6.01 | 7.92 | 3.53 | 6.29 | 2.74 | 7.45 | 2.92 | 4.67 | 5.24 | 5.03 | % Glucose Consumed (Saccharomyces cerevisiae; 120 hr): 12.73%; Ethanol (Saccharomyces cerevisiae; 120 hr): 3.54 g/L; HMF (Saccharomyces cerevisiae; 120 hr): 4.46 g/L |
| Nc1nc(N)nc(N)n1 [melamine] | 7.52 | 4.24 | 2.13 | 4.15 | 2.48 | 4.97 | 2.1 | 6.45 | 6.59 | 6.47 | % Glucose Consumed (Saccharomyces cerevisiae; 0 hr): 0%; HMF (Saccharomyces cerevisiae; 0 hr): 7.52 g/L |
| C1CCNCC1 [piperidine] | – | – | – | – | – | – | – | – | – | – | HMF ([1]; pH 6): 6.13 g/L; % Glucose Consumed (Saccharomyces cerevisiae): 5.39% and 8.05% and 5.62% and 5.78%; Ethanol (Saccharomyces cerevisiae): 2.37 g/L and 2.49 g/L and 2.71 g/L and 2.15 g/L; HMF (Saccharomyces cerevisiae): 5.31 g/L and 4.83 g/L and 5.51 g/L and 5.61 g/L |
| NC(N)=O [urea] | 7.44 | 6.18 | 2.72 | 4.49 | 2.23 | 6.35 | 2.39 | 6.06 | 6.58 | 6.49 | % Glucose Consumed (Saccharomyces cerevisiae; 0 hr): 0%; Ethanol (Saccharomyces cerevisiae; 0 hr): 1.38 g/L; HMF (Saccharomyces cerevisiae; 0 hr): 7.44 g/L; % Glucose Consumed (Saccharomyces cerevisiae; 120 hr): 8.49%; Ethanol (Saccharomyces cerevisiae; 120 hr): 2.41 g/L; HMF (Saccharomyces cerevisiae; 120 hr): 5.66 g/L |
